Experimental findings from PubChem BioAssay (NCI) are described below.

The structures appear in SMILES notation. Several values for one entry are separate records, joined by “and”; a condition that tells them apart may be missing. Identical values can stand only once.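 Grown in 96-well plates, cells were treated for 48 hours with each compound at five concentrations. Insufficient inhibition: endpoint recorded as highest concentration tested. The concentration for 50% growth inhibition is given as GI50. TGI: total growth inhibition.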

Common to all, as to experiment: growth of human tumour cells (NCI), 48 h
For assay [1], the system named is MCF7 breast.
Assay [2] concerns SNB-19 CNS.
The test system of assay [3] is OVCAR-4 ovarian.
In assay [4] the test system is MDA-MB-231 breast.
Assay [5] has as its system HCC-2998 colon.
In assay [6] the test system is 786-0 renal.
In assay [7] the test system is NCI-H522 lung.
Assay [8] deals with IGROV1 ovarian.
Assay [9] deals with NCI/ADR-RES ovarian.
Assay [10] relates to RXF 393 renal.

Consider `COC(=O)/C=C1/SC(=Nc2cccc(Cl)c2)N(CCc2c[nH]c3ccc(O)cc23)C1=O`, for which the GI50 in assay [1] is 1.69 µM; in [2], 2.57 µM; in assay [3], 1.4 µM; in assay [4], 1.74 µM; in assay [5], 1.88 µM; in assay [6], 1.67 µM. The GI50 in [7] is 1.63 µM; in assay [8], 2 µM; in assay [9] it was 2.41 µM; in [10] it was 1.51 µM. For the same molecule, the TGI in [1] is 4.73 µM; in assay [2], 6.88 µM; in assay [3] it was 4.44 µM; in [4], 3.59 µM; in assay [5], 3.48 µM; in [6], 3.4 µM. Also, the TGI was found to be 3.4 µM in assay [7], 4.35 µM in [8], 6.89 µM in [9] and 2.97 µM in assay [10].
Regarding `COc1ccc(-c2ncnc3c2ncn3CC#CCCl)cc1`, the GI50 is 2.48 µM in assay [1]; 4.87 µM in assay [2]; 2.66 µM in [3]; 2.32 µM in assay [4]; 17.6 µM in [5]; 1.86 µM in [6]. In addition, the GI50 was 3.09 µM in [7], 2.72 µM in [9] and 2.29 µM in assay [10]. The TGI in assay [1] is 12.2 µM; in assay [2], 18.1 µM; in [3], 12.5 µM; in assay [4], 8.28 µM; in assay [5], 31.8 µM; in assay [6], 3.93 µM. The values for the TGI in [7], in assay [9] and in [10] were 14 µM, 8.15 µM and 5.94 µM, respectively.
As to `O=C(O)Cc1cccc2c(=O)cc(-c3ccccc3)oc12`, the GI50 is 581 µM in assay [1]; > 909 µM in assay [2]; 546 µM in assay [3]; 834 µM in [4]; > 1000 µM in assay [5]; > 250 µM in [6]. Also, the GI50 was 285 µM in [7], 518 µM in [8], 194 µM in assay [9] and > 862 µM in assay [10]. Moreover, the TGI was 250 µM and > 1000 µM in assay [1]; > 1000 µM in [2]; 250 µM and > 1000 µM in assay [3]; > 1000 µM in assay [4]; > 1000 µM in assay [5]; > 1000 µM in [6]. Further, the TGI is 250 µM and > 773 µM in [7]; > 1000 µM in assay [8]; 250 µM and > 1000 µM in [9]; 250 µM and > 1000 µM in assay [10].
Regarding `O=C1c2c(c(=O)[nH]c3ccccc23)[C@H](c2ccccc2)[C@@H]2CCCN12`, the GI50 in assay [1] is 2.57 µM; in assay [2] it was 3.93 µM; in assay [3], 2.63 µM; in assay [4], 3.06 µM; in assay [5] it was 10.9 µM; in assay [6], 4.61 µM. Further, the GI50 in [7] was 8.56 µM; in assay [8], 3.59 µM; in [9] it was 3.05 µM; in assay [10] it was 1.88 µM. Besides, the TGI is 9.38 µM in [1]; > 100 µM in [2]; 11.6 µM in assay [3]; 27.5 µM in assay [4]; 69.6 µM in [5]; > 100 µM in assay [6]. Besides, the TGI was > 100 µM in assay [7], 15.6 µM in [8], 36.4 µM in assay [9] and 4.34 µM in assay [10].
On to `NCCCCC(NC(=O)C(N)CCCN=C(N)N)C(=O)NC(CCCCN)C(=O)NC(CCCN=C(N)N)C(=O)NC(CCCN=C(N)N)C(=O)NC(CCC(N)=O)C(=O)NC(CCCN=C(N)N)C(=O)NC(CCCN=C(N)N)C(=O)NC(CCCN=C(N)N)C(=O)NCC(=O)NCC(=O)O` (stereo not drawn), for which the GI50 in assay [1], in assay [2], in [3], in [4], in assay [5] and in assay [6] was > 50 µM throughout. Besides, the GI50 in assay [7], in [8], in assay [9] and in assay [10] was > 50 µM in each case. In addition, the TGI in assay [1], in assay [2], in assay [3], in [4], in assay [5] and in assay [6] was > 50 µM throughout. Besides, the TGI in [7], in [8], in [9] and in assay [10] was > 50 µM each time.
Take `COc1cc2nc(Nc3cccc(Cl)c3)nc(N)c2cc1OC`: the GI50 in [1] was 4.32 µM; in [2], 14.6 µM; in assay [3] it was 10.7 µM; in [4] it was 4.28 µM; in [5], 1.89 µM; in [6], 1.85 µM. Besides, the GI50 in assay [7] was 8.44 µM; in assay [8], 11 µM; in assay [9] it was 7.61 µM; in assay [10] it was 16.9 µM. The TGI was 17.4 µM in assay [1]; 28 µM in assay [2]; 26.3 µM in [3]; 14.5 µM in [4]; 3.57 µM in assay [5]; 3.73 µM in assay [6]. Moreover, the TGI in [7] was determined as 26.7 µM; in assay [8], 25.4 µM; in assay [9], 33.9 µM; in assay [10] it was 31.3 µM.
As for `CCSC[C@@H]1C[C@](O)(c2ccc(Cl)cc2)[C@@H](c2ccc(Cl)cc2)O1`, the GI50 in assay [1] was 21.8 µM; in [2], 18.8 µM; in [3], 16.7 µM; in [4], 18.2 µM; in assay [5], 20.3 µM; in assay [6], 17 µM. For the same molecule, the GI50 is 15.5 µM in [7], 15.3 µM in assay [8], 20.5 µM in assay [9] and 23.2 µM in [10]. Besides, the TGI in assay [1] was determined as 48.5 µM; in assay [2] it was 50 µM; in assay [3], 32.1 µM; in assay [4] it was 35.4 µM; in [5] it was 39.3 µM; in [6], 31.9 µM. The TGI in assay [7] is 31.4 µM; in [8], 32.3 µM; in assay [9], 43.6 µM; in assay [10] it was 38.5 µM.
